Experimental data as given in patent US11497751B2, “Modulators of Rho-associated protein kinase” (Redx Pharma PLC, priority 2018, dated 2022).

Molecular target: T1, N-terminal 6His-tagged ROCK2 catalytic domain 11-552 (Homo sapiens, UniProt O75116)
T1 construct: N-terminal 6His-tagged ROCK2 catalytic domain 11-552; 6His (N); purchased Dundee University, UK; host or cells: baculovirus expression system
Experiment: ROCK2 binding activity: ROCK2 inhibition, ADP-Glo Kinase Assay
Assay type: biochemical
Conditions: 1.25 nM ROCK2, 100 μM long S6 peptide, 20 μM ATP; 1 hour pre-incubation; read-out: ADP-Glo kinase activity assay ROCK2 Category
Outline: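 1.25 nM baculovirus-expressed ROCK2 pre-incubated 1 h with compound (1% DMSO), then 100 μM long S6 peptide and 20 μM ATP added for 1 h; 50 mM HEPES pH 7.5, 10 mM Mg acetate, 1 mM DTT. ADP-Glo luminescence; IC50 from four-parameter logistic fit.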

T1 sequence (O75116 11-552): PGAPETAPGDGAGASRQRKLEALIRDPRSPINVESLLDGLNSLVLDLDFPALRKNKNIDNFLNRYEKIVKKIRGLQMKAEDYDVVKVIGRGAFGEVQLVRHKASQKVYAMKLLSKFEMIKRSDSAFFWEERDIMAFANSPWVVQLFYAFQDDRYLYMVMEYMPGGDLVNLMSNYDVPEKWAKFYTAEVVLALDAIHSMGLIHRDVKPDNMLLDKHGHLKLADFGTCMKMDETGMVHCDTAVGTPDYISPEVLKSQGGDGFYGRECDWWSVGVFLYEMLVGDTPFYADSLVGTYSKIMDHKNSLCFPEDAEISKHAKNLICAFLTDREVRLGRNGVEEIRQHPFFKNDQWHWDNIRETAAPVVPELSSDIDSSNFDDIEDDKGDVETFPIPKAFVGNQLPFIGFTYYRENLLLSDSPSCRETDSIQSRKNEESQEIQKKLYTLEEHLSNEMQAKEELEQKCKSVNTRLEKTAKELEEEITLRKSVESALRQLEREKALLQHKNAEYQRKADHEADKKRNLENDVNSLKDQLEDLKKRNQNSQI

Row | IC50 | Structure (SMILES)
1 | < 300 nM | Cn1nc(-c2ccc(C(=O)NC3(CO)CC3)cc2)nc1Nc1ccc2[nH]ncc2c1C1CC1 [Example 293]
2 | < 300 nM | Cn1nc(-c2ccc(C(=O)NC3(C)CC3)cc2)nc1Nc1ccc2[nH]ncc2c1C1CC1 [Example 294]
3 | < 300 nM | CC(C)NC(=O)c1ccc(-c2nc(Nc3ccc4[nH]ncc4c3C3CC3)n(C)n2)cc1 [Example 295]
4 | 300 to 3000 nM | COC(=O)CNC(=O)c1ccc(-c2nc(Nc3ccc4[nH]ncc4c3C3CC3)n(C)n2)cc1 [Example 296]
5 | < 300 nM | Cn1nc(-c2ccc(C(=O)NC3CCC(F)(F)C3)cc2)nc1Nc1ccc2[nH]ncc2c1C1CC1 (stereo not shown) [Example 298]
6 | < 300 nM | Cn1nc(-c2ccc(C(=O)N[C@H]3C[C@@H]3F)cc2)nc1Nc1ccc2[nH]ncc2c1C1CC1 [Example 299]
7 | < 300 nM | Cn1cc(NC(=O)c2ccc(-c3nc(Nc4ccc5[nH]ncc5c4C4CC4)n(C)n3)cc2)cn1 [Example 300]
8 | < 300 nM | COC(=O)[C@@H](NC(=O)c1ccc(-c2nc(Nc3ccc4[nH]ncc4c3C3CC3)n(C)n2)cc1)C(C)C [Example 301]
9 | < 300 nM | COC(=O)[C@H](CC(C)C)NC(=O)c1ccc(-c2nc(Nc3ccc4[nH]ncc4c3C3CC3)n(C)n2)cc1 [Example 302]
10 | < 300 nM | Cn1nc(-c2ccc(C(=O)NC3CCOC3)cc2)nc1Nc1ccc2[nH]ncc2c1C1CC1 (stereo not shown) [Example 303]
11 | < 300 nM | CC[C@@H](C)[C@H](NC(=O)c1ccc(-c2nc(Nc3ccc4[nH]ncc4c3C3CC3)n(C)n2)cc1)C(=O)OC [Example 304]
12 | < 300 nM | Cn1nc(-c2ccc(C(=O)NC3CCCCC3O)cc2)nc1Nc1ccc2[nH]ncc2c1C1CC1 (stereo not shown) [Example 305]
13 | 300 to 3000 nM | Cn1nc(-c2ccc(C(=O)NCC(N)=O)cc2)nc1Nc1ccc2[nH]ncc2c1C1CC1 [Example 306]
14 | 300 to 3000 nM | Cn1nc(-c2ccc(C(=O)N3CCNC(C(F)(F)F)C3)cc2)nc1Nc1ccc2[nH]ncc2c1C1CC1 (stereo not shown) [Example 307]
15 | < 300 nM | Cn1nc(-c2ccc(C(=O)NC3(CO)CCCC3)cc2)nc1Nc1ccc2[nH]ncc2c1C1CC1 [Example 308]
16 | < 300 nM | CC(C)C[C@@H](CO)NC(=O)c1ccc(-c2nc(Nc3ccc4[nH]ncc4c3C3CC3)n(C)n2)cc1 [Example 309]
17 | < 300 nM | CCC(CO)NC(=O)c1ccc(-c2nc(Nc3ccc4[nH]ncc4c3C3CC3)n(C)n2)cc1 (stereo not shown) [Example 310]
18 | < 300 nM | Cn1nc(-c2ccc(C(=O)NC(CO)C(F)(F)F)cc2)nc1Nc1ccc2[nH]ncc2c1C1CC1 (stereo not shown) [Example 311]
19 | < 300 nM | CC1CC1NC(=O)c1ccc(-c2nc(Nc3ccc4[nH]ncc4c3C3CC3)n(C)n2)cc1 (stereo not shown) [Example 312]
20 | < 300 nM | CCNC(=O)c1ccc(-c2nc(Nc3ccc4[nH]ncc4c3CC)n(C)n2)cc1OC [Example 313]
21 | < 300 nM | CCc1c(Nc2nc(-c3ccc(C(=O)NC(C)C)c(OC)c3)nn2C)ccc2[nH]ncc12 [Example 314]
22 | 300 to 3000 nM | CCc1c(Nc2nc(-c3ccc(C(=O)NC4CN(C)C4)c(OC)c3)nn2C)ccc2[nH]ncc12 [Example 315]
23 | < 300 nM | CCc1c(Nc2nc(-c3ccc(C(=O)NCC(F)(F)F)c(OC)c3)nn2C)ccc2[nH]ncc12 [Example 316]

Row | IC50 | Structure (SMILES)
24 | < 300 nM | CCc1c(Nc2nc(-c3ccc(C(=O)NCC(F)F)cc3)nn2C)ccc2[nH]ncc12 [Example 317]
25 | < 300 nM | CCc1c(Nc2nc(-c3ccc(C(=O)NC(C)C)cc3)nn2C)ccc2[nH]ncc12 [Example 318]
26 | < 300 nM | CCc1c(Nc2nc(-c3ccc(C(=O)NC4CCC(F)(F)C4)cc3)nn2C)ccc2[nH]ncc12 (stereo not shown) [Example 319]
27 | < 300 nM | CCc1c(Nc2nc(-c3ccc(C(=O)NCC(C)C)cc3)nn2C)ccc2[nH]ncc12 [Example 320]
28 | < 300 nM | CCc1c(Nc2nc(-c3ccc(C(=O)NCC(C)(C)C)cc3)nn2C)ccc2[nH]ncc12 [Example 321]
29 | < 300 nM | CCc1c(Nc2nc(-c3ccc(C(=O)NC(C)C(F)(F)F)cc3)nn2C)ccc2[nH]ncc12 (stereo not shown) [Example 322]
30 | < 300 nM | CCNC(=O)c1ccc(-c2nc(Nc3ccc4[nH]ncc4c3CC)n(C)n2)cc1 [Example 323]
31 | < 300 nM | CCNC(=O)c1ccc(-c2nc(Nc3ccc4[nH]ncc4c3)n(C)n2)cc1 [Example 324]
32 | 300 to 3000 nM | CCNC(=O)c1ccc(-c2nc(Nc3ccc4[nH]ncc4c3)n(C)n2)cc1Cl [Example 325]
33 | < 300 nM | CCNC(=O)c1ccc(-c2nc(Nc3ccc4[nH]ncc4c3)n(C)n2)cc1F [Example 326]
34 | < 300 nM | CCNC(=O)c1ccc(-c2nc(Nc3ccc4[nH]ncc4c3)n(C)n2)c(Cl)c1 [Example 327]
35 | 3000 to 10000 nM | COc1cc(-c2nc(Nc3ccc4[nH]ncc4c3C)n(C)n2)ccc1C(=O)NC1CN(C)C1 [Example 328]
36 | 3000 to 10000 nM | COc1cc(-c2nc(Nc3ccc4[nH]ncc4c3C)n(C)n2)ccc1C(=O)NCCN(C)C [Example 329]
37 | < 300 nM | COc1cc(-c2nc(Nc3cnc4[nH]ncc4c3)n(C)n2)ccc1C(=O)NCC(F)(F)F [Example 330]
38 | 300 to 3000 nM | COc1cc(-c2nc(Nc3cnc4[nH]ncc4c3)n(C)n2)ccc1C(=O)NC(C)C [Example 331]
39 | 3000 to 10000 nM | COc1cc(-c2nc(Nc3cnc4[nH]ncc4c3)n(C)n2)ccc1C(=O)NC1CC1 [Example 332]
40 | > 10000 nM | COc1cc(-c2nc(Nc3cc4cn[nH]c4cc3C)n(C)n2)ccc1C(=O)NCC(F)(F)F [Example 335]
41 | < 300 nM | COc1cc(-c2nc(Nc3ccc4[nH]ncc4c3F)n(C)n2)ccc1C(=O)NC(C)(C)C [Example 336]
42 | < 300 nM | COCCn1nc(-c2ccc(C(=O)NCC(F)(F)F)c(C)c2)nc1Nc1ccc2[nH]ncc2c1C1CC1 [Example 337]
43 | < 300 nM | Cn1nc(-c2ccc(C(=O)NCC(C)(F)F)cc2)nc1Nc1ccc2[nH]ncc2c1C1CC1 [Example 338, 4-[5-[(4-cyclopropyl-1H-indazol-5-yl)amino]-1-methyl-1,2,4-triazol-3-yl]-N-(2,2-difluoropropyl)benzamide]
44 | < 300 nM | Cn1ccc(NC(=O)c2ccc(-c3nc(Nc4ccc5[nH]ncc5c4C4CC4)n(C)n3)cc2)n1 [Example 339]
45 | > 10000 nM | CCNC(=O)N1CCC(c2nc(Nc3ccc4[nH]ncc4c3C3CC3)n(C)n2)CC1 [Example 340, 4-[5-[(4-cyclopropyl-1H-indazol-5-yl)amino]-1-methyl-1,2,4-triazol-3-yl]-N-ethyl-piperidine-1-carboxamide]
46 | 300 to 3000 nM | CCNC(=O)N1CC=C(c2nc(Nc3ccc4[nH]ncc4c3C3CC3)n(C)n2)CC1 [Example 341, 4-[5-[(4-cyclopropyl-1H-indazol-5-yl)amino]-1-methyl-1,2,4-triazol-3-yl]-N-ethyl-3,6-dihydro-2H-pyridine-1-carboxamide]

Row | IC50 | Structure (SMILES)
47 | < 300 nM | Cn1nc(-c2ccc(C(=O)NCC(F)(F)F)cc2)nc1Nc1ccc2[nH]ncc2c1C1CC1 [Example 343, 4-[5-[(4-cyclopropyl-1H-indazol-5-yl)amino]-1-methyl-1,2,4-triazol-3-yl]-N-(2,2,2-trifluoroethyl)benzamide]
48 | < 300 nM | Cn1nc(-c2ccc(C(=O)NC3CC3)cc2)nc1Nc1ccc2[nH]ncc2c1C1CC1 [Example 344, N-Cyclopropyl-4-[5-[(4-cyclopropyl-1H-indazol-5-yl)amino]-1-methyl-1,2,4-triazol-3-yl]benzamide]
49 | 3000 to 10000 nM | CCNC(=O)c1ccc(-c2nc(Nc3ccc4[nH]ncc4c3Cl)n(C)n2)cc1C(F)(F)F [Example 345]
50 | < 300 nM | CCNC(=O)c1ccc(-c2nc(Nc3ccc4[nH]ncc4c3Cl)n(C)n2)cc1C [Example 346]
51 | < 300 nM | CCNC(=O)c1ccc(-c2nc(Nc3ccc4[nH]ncc4c3Cl)n(C)n2)c(OC)c1 [Example 347]
52 | < 300 nM | CC(C)NC(=O)COc1ccc(-c2nc(Nc3ccc4[nH]ncc4c3Cl)n(C)n2)cc1C(F)(F)F [Example 348]
53 | < 300 nM | CC(C)NC(=O)COc1ccc(-c2nc(Nc3ccc4[nH]ncc4c3Cl)n(C)n2)cc1C#N [Example 349]
54 | < 300 nM | Cc1cc(-c2nc(Nc3ccc4[nH]ncc4c3Cl)n(C)n2)ccc1OCC(=O)NC(C)C [Example 350]
55 | < 300 nM | CC(C)NC(=O)COc1ccc(-c2nc(Nc3ccc4[nH]ncc4c3Cl)n(C)n2)c(C#N)c1 [Example 351]
56 | < 300 nM | CC(C)NC(=O)COc1ccc(-c2nc(Nc3ccc4[nH]ncc4c3Cl)n(C)n2)c(Cl)c1 [Example 352]
57 | < 300 nM | COc1cc(OCC(=O)NC(C)C)ccc1-c1nc(Nc2ccc3[nH]ncc3c2Cl)n(C)n1 [Example 353]
58 | < 300 nM | Cc1cc(OCC(=O)NC(C)C)ccc1-c1nc(Nc2ccc3[nH]ncc3c2Cl)n(C)n1 [Example 354]
59 | < 300 nM | CC(C)NC(=O)COc1ccc(-c2nc(Nc3ccc4[nH]ncc4c3Cl)n(C)n2)c(F)c1 [Example 355]
60 | < 300 nM | CCNC(=O)c1ccc(-c2nc(Nc3ccc4[nH]ncc4c3Cl)n(C)n2)c(F)c1 [Example 356]
61 | < 300 nM | CCNC(=O)c1ccc(-c2nc(Nc3ccc4[nH]ncc4c3Cl)n(C)n2)c(C(F)(F)F)c1 [Example 357]
62 | < 300 nM | CCNC(=O)c1ccc(-c2nc(Nc3ccc4[nH]ncc4c3Cl)n(C)n2)cc1C#N [Example 358]
63 | 300 to 3000 nM | CCNC(=O)c1cc(F)c(-c2nc(Nc3ccc4[nH]ncc4c3Cl)n(C)n2)c(F)c1 [Example 359]
64 | < 300 nM | CCNC(=O)c1cc(F)c(-c2nc(Nc3ccc4[nH]ncc4c3Cl)n(C)n2)cc1F [Example 360]
65 | 300 to 3000 nM | CCNC(=O)c1c(F)cc(-c2nc(Nc3ccc4[nH]ncc4c3Cl)n(C)n2)cc1F [Example 361]
66 | < 300 nM | CC(C)NC(=O)COc1ccc(-c2nc(Nc3ccc4[nH]ncc4c3Cl)n(C)n2)c(F)c1F [Example 362]
67 | < 300 nM | COc1cc(-c2nc(Nc3ccc4[nH]ncc4c3Cl)n(C)n2)ccc1C(=O)NC1CCN(CC(F)(F)F)C1 (stereo not shown) [Example 363]
